Experimental data reported in patent US7179825B2, “Retinoic acid mimetic anilides” (Janssen Pharmaceutica N.V., priority 1997, dated 2007).

tested on: metabolism of retinoic acid in human breast cancer cells; assay: Inhibition of retinoic acid (RA) metabolism (Example C.1); assay type: cell-based; conditions: MCF-7 human breast cancer cells, 3H-RA as substrate; concentration needed to reduce the amount of metabolites to 50% of the control
How it was run: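 Test compound (in 1% DMSO) added at several concentrations to MCF-7 cell suspensions fed ³H-RA, after RA induction of metabolism one day earlier. Scintillation counting of the separated polar metabolite fraction; IC50 = concentration giving 50% of control metabolite level.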

Compound	IC50 [nM]
Cc1nccn1C(c1ccc(NC(=O)Nc2cccc(F)c2)cc1)C(C)C (stereo not drawn) [Compound 773]	> 100
C/C(=C\Cc1ccccc1)C(=O)Nc1ccc(C(C(C)C)n2ccnc2)cc1 (racemic) [Compound 589]	2.75
COc1ccc(CC(=O)Nc2ccc(C(C(C)C)(C(C)C)n3ccnc3)cc2)cc1OC [Compound 762]	40.8
C/C(=C\c1ccccc1)C(=O)Nc1ccc(C(C2CCCCC2)n2ccnc2)cc1 (racemic) [Compound 463]	24.5
CC(C)C(c1ccc(NC(N)=Nc2ccccc2)cc1)n1ccnc1 (stereo not drawn) [Compound 743]	11
CCCC(c1ccc(NC(=O)/C(C)=C/c2ccccc2)cc1)n1ccnc1 (racemic) [Compound 467]	2.58
CC(C)C(c1ccc(NC(=O)Cc2ccc(Cl)cc2)cc1)(C(C)C)n1ccnc1 [Compound 763]	5.62
CCCC(CCC)C(c1ccc(NC(=O)Cc2ccc(OC)c(OC)c2)cc1)n1ccnc1 (racemic) [Compound 378]	1.74
CC(C)C(c1ccc(NC(=O)c2ccncc2)cc1)n1ccnc1 (racemic) [Compound 194]	7.07
CC(C)C(c1ccc(NC(=O)Nc2cccc(F)c2)cc1)c1cccnc1 (racemic) [Compound 690]	> 100
CC(C(c1ccc(NC(=O)CN2CCN(C)CC2)cc1)n1ccnc1)N(C)C (single isomer, unassigned) [Compound 352]	0.257
C/C(=C\c1ccccn1)C(=O)Nc1ccc(C(C(C)C)n2ccnc2)cc1 (racemic) [Compound 604]	2.89
C/C(=C\C1CCCCC1)C(=O)Nc1ccc(C(C(C)C)n2ccnc2)cc1 (stereo not drawn) [Compound 581]	> 100
CC(C)C(c1ccc(NC(=O)Cc2ccc(N)c(I)c2)cc1)n1ccnc1 (stereo not drawn) [Compound 148]	1.86
CC(C)C(c1ccc(NC(=O)CC2(CC(=O)O)CCCC2)cc1)n1ccnc1 (racemic) [Compound 264]	2.71
CC(C)C(c1ccc(NC(=O)c2ccc3ccccc3n2)cc1)n1ccnc1 (racemic) [Compound 215]	36
CCC(CC)C(c1ccc(NC(=O)/C(C)=C/c2ccccc2)cc1)n1cncn1 (racemic) [Compound 2]	0.03
CCCN(C)C(C)C(c1ccc(NC(=O)Cc2ccc(OC)c(OC)c2)cc1)n1ccnc1 (single isomer, unassigned) [Compound 413]	5.27
CC(C)C(c1ccc(NC(=O)C2CSc3ccccc3O2)cc1)n1ccnc1 (racemic) [Compound 243]	35.9
Cc1cc(CC(=O)Nc2ccc(C(C(C)N(C)C)n3ccnc3)cc2)cc(C)c1C (single isomer, unassigned) [Compound 309]	3.65
CC(C)C(c1ccc(NC(=O)CSc2ccccc2)cc1)n1ccnc1 (racemic) [Compound 223]	1.2
CC(C)C(c1ccc(NC(=O)CC2COc3ccccc3O2)cc1)n1cncn1 (stereo not drawn) [Compound 162]	2.88
CCC(CC)C(c1ccc(NC(=O)Cc2ccc(OC)c(OC)c2)cc1)n1cncn1 (racemic) [Compound 73]	0.463
CC(C)C(c1ccc(NC(=O)Nc2cccc([N+](=O)[O-])c2)cc1)n1ccnc1 (racemic) [Compound 737]	2.36

Compound	IC50 [nM]
CC(C)C(c1ccc(NC(=O)Nc2cccc(F)c2)cc1)n1cncn1 (racemic) [Compound 725]	3.29
CCC(CC)C(c1ccc(NC(=O)CCc2ccc(OC)c(OC)c2)cc1)n1ccnc1 (racemic) [Compound 32]	0.697
CCC(C(c1ccc(NC(=O)Cc2ccc(OC)c(OC)c2)cc1)n1ccnc1)N(C)C (single isomer, unassigned) [Compound 393]	0.955
CCC(CC)C(c1ccc(NC(=O)Nc2ccccc2F)cc1)n1cncn1 (racemic) [Compound 715]	0.154
CC(C)C(c1ccc(NC(=O)c2cccnc2)cc1)n1ccnc1 (racemic) [Compound 196]	22.3
O=C(Nc1ccc(C(c2ccc(Cl)cc2)n2ccnc2)cc1)C(O)c1ccccc1 (stereo not drawn) [Compound 423]	40.8
COc1ccc(CC(=O)Nc2ccc(C(C(C)C)n3cncn3)cc2)cc1OC.O (stereo not drawn) [Compound 136]	4.83
CC(C)C(c1ccc(NC(=O)C2=COc3ccccc3O2)cc1)n1ccnc1 (stereo not drawn) [Compound 234]	3.01
COc1cccc(CC(=O)Nc2ccc(C(C(C)C)n3ccnc3)cc2)c1 (racemic) [Compound 665]	5.91
C/C(=C\c1cccc(Cl)c1)C(=O)Nc1ccc(C(C(C)C)n2ccnc2)cc1 (racemic) [Compound 577]	42.3
CC(C)C(c1ccc(NC(=O)Cc2ccc(O)cc2)cc1)n1cncn1 (stereo not drawn) [Compound 134]	2.98
CC(C)C(c1ccc(NC(=O)Cc2ccco2)cc1)n1ccnc1 (racemic) [Compound 235]	6.94
CC(C)C(c1ccc(NC(=O)C(C)(C)Oc2ccc(Cl)cc2)cc1)n1ccnc1 (racemic) [Compound 222]	3.32
CC(C)C(c1ccc(NC(=O)c2cc3ccccc3s2)cc1)n1ccnc1 (racemic) [Compound 168]	2.36
Cc1noc(C)c1C(=O)Nc1ccc(C(C(C)C)n2ccnc2)cc1 (racemic) [Compound 242]	2.82
CC(C)C(c1ccc(NC(=O)Cc2ccccc2Cl)cc1)n1ccnc1 (stereo not drawn) [Compound 664]	1.56
CCOc1ccc(CC(=O)Nc2ccc(C(C(CC)CC)n3cncn3)cc2)cc1OCC (racemic) [Compound 82]	1.16
CCC(CC)C(c1ccc(NC(=O)Cc2ccc3c(c2)OCO3)cc1)n1ccnc1 (racemic) [Compound 28]	2.76
CC(C(c1ccc(NC(=O)Cc2ccc(Cl)cc2)cc1)n1ccnc1)N1CCCCC1 (single isomer, unassigned) [Compound 366]	3.05
COc1ccc(CC(=O)Nc2ccc(C(n3cncn3)C(C)(C)C)cc2)cc1OC.O (stereo not drawn) [Compound 642]	1.16
CC(=O)Nc1ccc(C(c2cccc(F)c2)n2cncn2)cc1 (stereo not drawn) [Compound 615]	> 1000
CC(=Cc1cccc(C(F)(F)F)c1)C(=O)Nc1ccc(C(C(C)C)n2ccnc2)cc1 (racemic) [Compound 578]	7.67
CC(C)C(c1ccc(NC(=O)C2COc3ccccc3O2)cc1)n1ccnc1 (stereo not drawn) [Compound 175]	4.83
CC(C)C(c1ccc(NC(=O)Cc2ccc(Cl)cc2)cc1)c1cccnc1 (racemic) [Compound 686]	43.1

tested on: Ovariectomized rats; assay: Vaginal keratinization test on ovariectomized rats (Example C.2); assay type: in vivo; conditions: estradiol undecylate induced keratinization, per os once daily on days 1-3, active dose = 50% of rats show complete suppression
How it was run: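 Value is the lowest oral dose (mg/kg) at which half of tested rats show complete suppression of estradiol undecylate-induced vaginal keratinization by histology. Ovariectomized rats received 100 μg/100 g estradiol undecylate s.c., then compound or PEG 200 vehicle p.o. daily for three days; sacrifice one day later.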

Compound	LAD (lowest active dose) [mg/kg]
Cc1nccn1C(c1ccc(NC(=O)Nc2cccc(F)c2)cc1)C(C)C (stereo not drawn) [Compound 773]	>10.00
C/C(=C\Cc1ccccc1)C(=O)Nc1ccc(C(C(C)C)n2ccnc2)cc1 (racemic) [Compound 589]	10.00
COc1ccc(CC(=O)Nc2ccc(C(C(C)C)(C(C)C)n3ccnc3)cc2)cc1OC [Compound 762]	>5.00
C/C(=C\c1ccccc1)C(=O)Nc1ccc(C(C2CCCCC2)n2ccnc2)cc1 (racemic) [Compound 463]	20.00
CC(C)C(c1ccc(NC(N)=Nc2ccccc2)cc1)n1ccnc1 (stereo not drawn) [Compound 743]	>10.00
CCCC(c1ccc(NC(=O)/C(C)=C/c2ccccc2)cc1)n1ccnc1 (racemic) [Compound 467]	>20.00
CC(C)C(c1ccc(NC(=O)Cc2ccc(Cl)cc2)cc1)(C(C)C)n1ccnc1 [Compound 763]	>5.00
CCCC(CCC)C(c1ccc(NC(=O)Cc2ccc(OC)c(OC)c2)cc1)n1ccnc1 (racemic) [Compound 378]	2.50
CC(C)C(c1ccc(NC(=O)c2ccncc2)cc1)n1ccnc1 (racemic) [Compound 194]	10.00
CC(C)C(c1ccc(NC(=O)Nc2cccc(F)c2)cc1)c1cccnc1 (racemic) [Compound 690]	>10.00
CC(C(c1ccc(NC(=O)CN2CCN(C)CC2)cc1)n1ccnc1)N(C)C (single isomer, unassigned) [Compound 352]	>5.00
C/C(=C\c1ccccn1)C(=O)Nc1ccc(C(C(C)C)n2ccnc2)cc1 (racemic) [Compound 604]	>10.00
C/C(=C\C1CCCCC1)C(=O)Nc1ccc(C(C(C)C)n2ccnc2)cc1 (stereo not drawn) [Compound 581]	20.00
CC(C)C(c1ccc(NC(=O)Cc2ccc(N)c(I)c2)cc1)n1ccnc1 (stereo not drawn) [Compound 148]	>5.00
CC(C)C(c1ccc(NC(=O)CC2(CC(=O)O)CCCC2)cc1)n1ccnc1 (racemic) [Compound 264]	>10.00
CC(C)C(c1ccc(NC(=O)c2ccc3ccccc3n2)cc1)n1ccnc1 (racemic) [Compound 215]	20.00
CCC(CC)C(c1ccc(NC(=O)/C(C)=C/c2ccccc2)cc1)n1cncn1 (racemic) [Compound 2]	5.00
CCCN(C)C(C)C(c1ccc(NC(=O)Cc2ccc(OC)c(OC)c2)cc1)n1ccnc1 (single isomer, unassigned) [Compound 413]	5.00
CC(C)C(c1ccc(NC(=O)C2CSc3ccccc3O2)cc1)n1ccnc1 (racemic) [Compound 243]	10.00
Cc1cc(CC(=O)Nc2ccc(C(C(C)N(C)C)n3ccnc3)cc2)cc(C)c1C (single isomer, unassigned) [Compound 309]	>2.50
CC(C)C(c1ccc(NC(=O)CSc2ccccc2)cc1)n1ccnc1 (racemic) [Compound 223]	5.00
CC(C)C(c1ccc(NC(=O)CC2COc3ccccc3O2)cc1)n1cncn1 (stereo not drawn) [Compound 162]	>5.00
CCC(CC)C(c1ccc(NC(=O)Cc2ccc(OC)c(OC)c2)cc1)n1cncn1 (racemic) [Compound 73]	>2.50
CC(C)C(c1ccc(NC(=O)Nc2cccc([N+](=O)[O-])c2)cc1)n1ccnc1 (racemic) [Compound 737]	>10.00

Compound	LAD (lowest active dose) [mg/kg]
CC(C)C(c1ccc(NC(=O)Nc2cccc(F)c2)cc1)n1cncn1 (racemic) [Compound 725]	5.00
CCC(CC)C(c1ccc(NC(=O)CCc2ccc(OC)c(OC)c2)cc1)n1ccnc1 (racemic) [Compound 32]	5.00
CCC(C(c1ccc(NC(=O)Cc2ccc(OC)c(OC)c2)cc1)n1ccnc1)N(C)C (single isomer, unassigned) [Compound 393]	5.00
CCC(CC)C(c1ccc(NC(=O)Nc2ccccc2F)cc1)n1cncn1 (racemic) [Compound 715]	>2.50
CC(C)C(c1ccc(NC(=O)c2cccnc2)cc1)n1ccnc1 (racemic) [Compound 196]	>10.00
O=C(Nc1ccc(C(c2ccc(Cl)cc2)n2ccnc2)cc1)C(O)c1ccccc1 (stereo not drawn) [Compound 423]	20.00
COc1ccc(CC(=O)Nc2ccc(C(C(C)C)n3cncn3)cc2)cc1OC.O (stereo not drawn) [Compound 136]	5.00
CC(C)C(c1ccc(NC(=O)C2=COc3ccccc3O2)cc1)n1ccnc1 (stereo not drawn) [Compound 234]	10.00
COc1cccc(CC(=O)Nc2ccc(C(C(C)C)n3ccnc3)cc2)c1 (racemic) [Compound 665]	2.50
C/C(=C\c1cccc(Cl)c1)C(=O)Nc1ccc(C(C(C)C)n2ccnc2)cc1 (racemic) [Compound 577]	10.00
CC(C)C(c1ccc(NC(=O)Cc2ccc(O)cc2)cc1)n1cncn1 (stereo not drawn) [Compound 134]	5.00
CC(C)C(c1ccc(NC(=O)Cc2ccco2)cc1)n1ccnc1 (racemic) [Compound 235]	5.00
CC(C)C(c1ccc(NC(=O)C(C)(C)Oc2ccc(Cl)cc2)cc1)n1ccnc1 (racemic) [Compound 222]	20.00
CC(C)C(c1ccc(NC(=O)c2cc3ccccc3s2)cc1)n1ccnc1 (racemic) [Compound 168]	10.00
Cc1noc(C)c1C(=O)Nc1ccc(C(C(C)C)n2ccnc2)cc1 (racemic) [Compound 242]	>10.00
CC(C)C(c1ccc(NC(=O)Cc2ccccc2Cl)cc1)n1ccnc1 (stereo not drawn) [Compound 664]	5.00
CCOc1ccc(CC(=O)Nc2ccc(C(C(CC)CC)n3cncn3)cc2)cc1OCC (racemic) [Compound 82]	2.50
CCC(CC)C(c1ccc(NC(=O)Cc2ccc3c(c2)OCO3)cc1)n1ccnc1 (racemic) [Compound 28]	2.50
CC(C(c1ccc(NC(=O)Cc2ccc(Cl)cc2)cc1)n1ccnc1)N1CCCCC1 (single isomer, unassigned) [Compound 366]	>10.00
COc1ccc(CC(=O)Nc2ccc(C(n3cncn3)C(C)(C)C)cc2)cc1OC.O (stereo not drawn) [Compound 642]	2.50
CC(=O)Nc1ccc(C(c2cccc(F)c2)n2cncn2)cc1 (stereo not drawn) [Compound 615]	>20.00
CC(=Cc1cccc(C(F)(F)F)c1)C(=O)Nc1ccc(C(C(C)C)n2ccnc2)cc1 (racemic) [Compound 578]	>10.00
CC(C)C(c1ccc(NC(=O)C2COc3ccccc3O2)cc1)n1ccnc1 (stereo not drawn) [Compound 175]	10.00
CC(C)C(c1ccc(NC(=O)Cc2ccc(Cl)cc2)cc1)c1cccnc1 (racemic) [Compound 686]	>10.00
